Source: patent publication US4529549A, “Spergualin-related compounds and process for the preparation thereof” (Zaidan Hojin Biseibutsu Kagaku Kenkyu Kai, priority 1982, dated 1985)
Converted amounts (≈) assume the structure as drawn. Counter-ions that a name gives are not always drawn. Like-named read-outs stand apart in the source and are kept apart here.

Tests used:
[1] = Stability of the compounds in aqueous solutions (HPLC residual content); assay type: physicochemical; settings: water
Protocol: Each of the compounds of this invention was dissolved in water to a concentration of 0.5 (w/w)%. The aqueous solution was maintained at 40°±1° C., and sampled at certain time intervals. Each sample was subjected to high-performance liquid chromatographic analysis to measure the area of the peak of the compound at each sampling time, and to calculate the ratio of the area of the peak after the indicated period of time to that at the first sampling time. The results of the calculation were used to determine the contents (%) of the compound of this invention in the aqueous solution after the indicated periods of time, with the initial content of said compound set at 100%.

Bacillus subtilis PCI219 = experiment: Growth-inhibiting action on Bacillus subtilis (agar plate MIC); assay type: cell-based; settings: Bacillus subtilis
Protocol: Each of the compounds of this invention was dissolved in nutrient agar media to final concentrations of 100, 50, 25, 12.5, 6.25, 3.13 and 1.56 μg/ml, to prepare agar plates for testing. Bacillus subtilis PCI219 was adjusted to a content of 1×10^6 viable cells/ml, in a culture broth, and a loopful of the broth was applied onto the agar plates. The plates were incubated for 20 hours at 37° C. under stationary conditions, and observed for the formation of colonies of Bacillus subtilis. The lowest of the concentrations at which no colonies were formed was taken to be minimum inhibitory concentration (MIC).

[2] = system: mouse leukemia L1210 cells; experiment: In vitro proliferation-inhibiting action on mouse leukemia L1210 cells; assay type: cell-based; settings: 48 hours at 37° C.
Protocol: Leukemia L1210 cells (1×10^5 /0.2 ml) were transplanted to female DBA/2 mice intraperitoneally. four days later, the ascitic fluid was collected and centrifuged to obtain proliferated L1210 cells. The L1210 cells collected were added to RPMI1640 medium containing bovine fetal serum and 2-mercaptoethanol, to obtain a suspension of L1210 cells having a final concentration of 5×10^4 cells/0.9 ml. Each of the compounds of this invention was dissolved in said culture medium to prepare solutions with final concentrations ranging from 0.062 to 100 μg/ml. 0.9 ml of the L1210 cell suspension and 0.1 ml of each test solution were mixed in petri dishes, and incubated for 48 hours at 37° C. in an incubator under an atmosphere of carbon dioxide gas. The number of L1210 cells was counted before and after the incubation, and that concentration of the compound which inhibited the proliferation of L1210 cells by 50% of the control's proliferation was determined (IC50).

mouse leukemia L1210 = experiment: Life-prolonging effect in mouse leukemia L1210; assay type: in vivo, mouse (male CDF1-SLC); settings: once daily for 9 days, >125 effective
Protocol: (§1) Leukemia L1210 cells (1×10^5 /0.2 ml) were transplanted intraperitoneally into male CDF1 -SLC mice (6 mice/group). Each of the compounds of this invention was diluted with physiological saline to various concentrations. Each dilution was administered at a dose of 0.1 ml/10 g of body weight once daily for 9 days, starting on the day after the day of the transplantation. The mice of the control group were administered physiological saline.
The average number of days that the group receiving the compound of this invention survived was calculated. The FIGURE obtained was divided by the average number of survival days for the control group, and was multiplied by 100 (T/C (%)). T/C value more than 125 was considered to be effective.

[3] = Toxicity: change in body weight in mice transplanted with L1210; assay type: in vivo, mouse (male CDF1-SLC); settings: once daily for 9 days
Protocol: as §1
Change in body weight, the measure of the toxicity of the compounds of this invention, was expressed by a difference between the change in body weight for the group receiving the compound of this invention and that for the control group receiving physiological saline and undergoing no transplantation.

Gram-positive bacteria = settings: cited from earlier work
Gram-negative bacteria = settings: cited from earlier work
mouse leukemia L-1210 = settings: cited from earlier work
mouse leukemia FL-4 = settings: cited from earlier work
Ehrlich carcinoma = settings: cited from earlier work
sarcoma 180 (S-180) = settings: cited from earlier work
[4] = PCI219, nutrient agar, 20 hours at 37° C., read-out: MIC

Compound	remaining at 12 h [1] [%]	remaining at 24 h [1] [%]	remaining at 48 h [1] [%]	remaining at 72 h [1] [%]	remaining at 120 h [1] [%]	remaining at 168 h [1] [%]	MIC (Bacillus subtilis PCI219; [4]) [µg/mL]	IC50 [2] [µg/mL]	T/C (%) (mouse leukemia L1210; 0.39 mg/kg/day)	T/C (%) (mouse leukemia L1210; 0.78 mg/kg/day)	T/C (%) (mouse leukemia L1210; 1.56 mg/kg/day)	T/C (%) (mouse leukemia L1210; 3.13 mg/kg/day)	T/C (%) (mouse leukemia L1210; 6.25 mg/kg/day)	T/C (%) (mouse leukemia L1210; 12.50 mg/kg/day)	T/C (%) (mouse leukemia L1210; 25.00 mg/kg/day)	T/C (%) (mouse leukemia L1210; 50.00 mg/kg/day)	Change in body weight (g) ([3]; 0.78 mg/kg/day)	Change in body weight (g) ([3]; 1.56 mg/kg/day)	Change in body weight (g) ([3]; 3.13 mg/kg/day)	Change in body weight (g) ([3]; 6.25 mg/kg/day)	also measured
Cl.Cl.Cl.N=C(N)NCCCCCCC(=O)NCC(=O)NCCCCNCCCN [Compound 1, 10-[N-(7-guanidinoheptanoyl)-glycyl]-1,5,10-triazadecane trihydrochloride]	99.7	100	99.7	99.7	99.8	99.9	6.25	1.7	126	> 250	> 388	> 667	> 769	> 528	> 279	12.9	+2.7 g	+1.0 g	+0.8 g	+0.9 g	Change in body weight (g) ([3]; 0.39 mg/kg/day): +1.8 g; Change in body weight (g) ([3]; 12.50 mg/kg/day): +0.2 g; Change in body weight ([3]; 25.00 mg/kg/day): -1.6 g
Cl.Cl.Cl.N=C(N)NCCCCCCC(=O)N[C@@H](CO)C(=O)NCCCCNCCCN [Compound 2, 10-[N-(7-guanidinoheptanoyl)-L-seryl]-1,5,10-triazadecane trihydrochloride]	100	100	99.8	100	99.7	99.8	–	4.5	124	> 346	> 769	> 769	> 705	> 612	100	12.8	+1.5 g	+1.3 g	+0.6 g	+1.0 g	MIC (Bacillus subtilis PCI219; PCI219, 20 h): 12.5 µg/mL; Change in body weight (g) ([3]; 0.39 mg/kg/day): +2.7 g; Change in body weight ([3]; 12.50 mg/kg/day): -0.2 g
N=C(N)NCCCCCCCCC(=O)N[C@@H](CO)C(=O)NCCCCNCCCN [Compound 17, 10-[N--(9-guanidinononanoyl)-L-seryl]-1,5,10-triazadecane trihydrochloride]	99.6	100	99.8	99.7	100	99.3	6.25	11.3	–	–	–	–	–	–	–	–	–	–	–	–	–
N=C(N)NCCCCC(O)CC(=O)NC(O)C(=O)NCCCCNCCCN (centres unmarked) [Spergualin]	–	–	–	–	–	–	–	4.6 (≈ 11.4 µM)	–	129	> 224	> 665	> 769	> 700	> 524	> 342	+0.8 g	+2.5 g	+1.2 g	+0.9 g	Residual content (%) of the compound in an aqueous solution ([1]; 12 h): 94.6%; Residual content (%) of the compound in an aqueous solution ([1]; 24 h): 90.8%; Residual content (%) of the compound in an aqueous solution ([1]; 48 h): 84.6%; Residual content (%) of the compound in an aqueous solution ([1]; 72 h): 78.5%; Residual content (%) of the compound in an aqueous solution ([1]; 120 h): 69.9%; Residual content (%) of the compound in an aqueous solution ([1]; 168 h): 65.1%; Change in body weight (g) ([3]; 12.50 mg/kg/day): +0.8 g; Change in body weight (g) ([3]; 25.00 mg/kg/day): +1.1 g; Change in body weight (g) ([3]; 50.00 mg/kg/day): +0.2 g; growth inhibitory activity (Gram-positive bacteria): growth inhibitory activity; growth inhibitory activity (Gram-negative bacteria): growth inhibitory activity; curing effect and life extension effect (mouse leukemia L-1210): distinctive curing effect and life extension effect; curing effect and life extension effect (mouse leukemia FL-4): distinctive curing effect and life extension effect; curing effect and life extension effect (Ehrlich carcinoma): distinctive curing effect and life extension effect; curing effect and life extension effect (sarcoma 180 (S-180)): distinctive curing effect and life extension effect
